The values that follow come from patent US9359308B2, “Pyrazine kinase inhibitors” (Portola Pharmaceuticals, Inc., priority 2011, dated 2016).

This test has as its target T1, full length active recombinant SYK enzyme (Homo sapiens, UniProt P43405).
T1 construct: full length active recombinant SYK enzyme (Millipore, Calif.); purchased Millipore
Briefly: Inhibition of Syk tyrosine phosphorylation activity (LANCE TR-FRET kinase assay). The conditions noted are these: activity in the Syk assays, class symbols. Format: biochemical. An outline of the steps: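 IC50 was derived by non-linear regression of TR-FRET signal (Eu-W1024-PY100 donor, streptavidin-APC acceptor) read 1 h after EDTA quench. The kinase step ran 1 h at room temperature with 1 nM full-length SYK, 550 nM biotinylated DEEDYESP substrate and 100 μM ATP in Tris pH 7.5/MgCl2/DTT at 3% final DMSO.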
For orientation: Time-resolved FRET reads energy transfer from a long-lived donor to a nearby acceptor.

The IC50 is the concentration at which inhibition is half-maximal. Turning to `COc1cc(Nc2nc(N[C@@H](C(N)=O)C(C)C)cnc2C(N)=O)ccn1` [Example 315, (R)-5-(1-amino-3-methyl-1-oxobutan-2-ylamino)-3-(2-methoxypyridin-4-ylamino)pyrazine-2-carboxamide], the IC50 lay within 10 to 100 nM.

For the compound `CC(C)[C@@H](Nc1cnc(C(N)=O)c(Nc2cccc(-n3nccn3)c2)n1)C(N)=O` [Example 65, (R)-3-(3-(2H-1,2,3-triazol-2-yl)phenylamino)-5-(1-amino-3-methyl-1-oxobutan-2-ylamino)pyrazine-2-carboxamide], the IC50 lay in the range of 10 to 100 nM.

In the case of `NC(=O)c1ncc(N[C@@H]2CCCC(F)(F)[C@@H]2N)nc1Nc1ccc2cnccc2c1` [Example 364, 5-((1R,2R)-2-amino-3,3-difluorocyclohexylamino)-3-(isoquinolin-6-ylamino)pyrazine-2-carboxamide], the IC50 was in the range of 1 to 10 nM.

As for `CC(C)C[C@@H](Nc1cnc(C(N)=O)c(Nc2ccc3c(c2)CCC(=O)N3C)n1)C(N)=O` [Example 89, (R)-5-(1-amino-4-methyl-1-oxopentan-2-ylamino)-3-(1-methyl-2-oxo-1,2,3,4-tetrahydroquinolin-6-ylamino)pyrazine-2-carboxamide], the IC50 was 1 to 10 nM.

As for `Cc1ccc(Nc2nc(N[C@@H]3CCCC(F)(F)[C@@H]3N)cnc2C(N)=O)cc1C` [Example 169, 5-((1R,2R)-2-amino-3,3-difluorocyclohexylamino)-3-(3,4-dimethylphenylamino)pyrazine-2-carboxamide], the IC50 was 1 to 10 nM.

As to `CC(C)C[C@@H](Nc1cnc(C(N)=O)c(Nc2cnc3cccnc3c2)n1)C(N)=O` [Example 407, (R)-3-(1,5-naphthyridin-3-ylamino)-5-(1-amino-4-methyl-1-oxopentan-2-ylamino)pyrazine-2-carboxamide], the IC50 fell in the range of 1 to 10 nM.

As for `NC(=O)c1ncc(N[C@@H](C(N)=O)C2CC2)nc1Nc1ccc2cnccc2c1` [Example 190, (R)-5-(2-amino-1-cyclopropyl-2-oxoethylamino)-3-(isoquinolin-6-ylamino)pyrazine-2-carboxamide], the IC50 lay in the range of 1 to 10 nM.

Turning to `COc1ccc(Nc2nc(N[C@@H]3CCCC[C@@H]3N)cnc2C(N)=O)cc1C(=O)N(C)C` [Example 286, 5-((1R,2S)-2-aminocyclohexylamino)-3-(3-(dimethylcarbamoyl)-4-methoxyphenylamino)pyrazine-2-carboxamide], the IC50 was 100 to 1000 nM.

For `NC(=O)c1ncc(N[C@@H]2CCCC[C@@H]2N)nc1N[C@H]1CCc2ccccc21` [Example 39, 5-((1R,2S)-2-aminocyclohexylamino)-3-((S)-2,3-dihydro-1H-inden-1-ylamino)pyrazine-2-carboxamide], the IC50 is 100 to 1000 nM.

As for `Cc1cc(Nc2nc(N[C@H](CC(C)C)C(N)=O)cnc2C(N)=O)ccn1` [Example 84, (R)-5-(1-amino-4-methyl-1-oxopentan-2-ylamino)-3-(2-methylpyridin-4-ylamino)pyrazine-2-carboxamide], the IC50 was 1 to 10 nM.

Take `NC(=O)c1ncc(N[C@@H]2CCCC[C@@H]2N)nc1Nc1cnn(C2CC2)c1` [Example 258, 5-((1R,2S)-2-aminocyclohexylamino)-3-(1-cyclopropyl-1H-pyrazol-4-ylamino)pyrazine-2-carboxamide]: the IC50 fell in the range of 10 to 100 nM.

With `CC(C)[C@@H](Nc1cnc(C(N)=O)c(Nc2ccc(OCC(F)(F)F)nc2)n1)C(N)=O` [Example 327, (R)-5-(1-amino-3-methyl-1-oxobutan-2-ylamino)-3-(6-(2,2,2-trifluoroethoxy)pyridin-3-ylamino)pyrazine-2-carboxamide], the IC50 lay within 100 to 1000 nM.

As for `NC(=O)c1ncc(N[C@@H]2CCCC[C@@H]2N)nc1Nc1cnn(CC2CC2)c1` [Example 219, 5-((1R,2S)-2-aminocyclohexylamino)-3-(1-(cyclopropylmethyl)-1H-pyrazol-4-ylamino)pyrazine-2-carboxamide], the IC50 was in the range of 10 to 100 nM.

As to `CC(C)(C)C[C@@H](Nc1cnc(C(N)=O)c(Nc2cncc(F)c2)n1)C(N)=O` [Example 247, (R)-5-(1-amino-4,4-dimethyl-1-oxopentan-2-ylamino)-3-(5-fluoropyridin-3-ylamino)pyrazine-2-carboxamide], the IC50 lay within 1 to 10 nM.

As to `CC[C@@H](Nc1cnc(C(N)=O)c(Nc2ccc(C)cc2)n1)C(N)=O` [Example 152, (R)-5-(1-amino-1-oxobutan-2-ylamino)-3-(p-tolylamino)pyrazine-2-carboxamide], the IC50 lay in the range of 10 to 100 nM.

Consider `COc1ncc(Nc2nc(N[C@@H]3CCCC[C@@H]3N)cnc2C(N)=O)cn1` [Example 305, 5-((1R,2S)-2-aminocyclohexylamino)-3-(2-methoxypyrimidin-5-ylamino)pyrazine-2-carboxamide], for which the IC50 was in the range of 10 to 100 nM.

`CC(C)C[C@@H](Nc1cnc(C(N)=O)c(Nc2ccnc(N(C)C)c2)n1)C(N)=O` [Example 335, (R)-5-(1-amino-4-methyl-1-oxopentan-2-ylamino)-3-(2-(dimethylamino)pyridin-4-ylamino)pyrazine-2-carboxamide]: the IC50 fell in the range of 1 to 10 nM.

For `NC(=O)c1ncc(N[C@@H]2CCCC[C@@H]2N)nc1Nc1cc(-c2ncccn2)cc(-c2ncccn2)c1` [Example 423, 5-(((1R,2S)-2-aminocyclohexyl)amino)-3-((3,5-di(pyrimidin-2-yl)phenyl)amino)pyrazine-2-carboxamide], the IC50 was in the range of 1 to 10 nM.

Consider `CCc1cc(Nc2nc(N[C@@H]3CCCC(F)(F)[C@@H]3N)cnc2C(N)=O)ccn1` [Example 355, 5-((1R,2R)-2-amino-3,3-difluorocyclohexylamino)-3-(2-ethylpyridin-4-ylamino)pyrazine-2-carboxamide], for which the IC50 fell in the range of 10 to 100 nM.

`Cc1nsc(Nc2nc(N[C@@H]3CCCC[C@@H]3N)cnc2C(N)=O)c1-c1cccnc1` [Example 121]: the IC50 was 100 to 1000 nM.

For the compound `CC[C@@H](Nc1cnc(C(N)=O)c(Nc2cccc3ncccc23)n1)C(N)=O` [Example 375, (R)-5-(1-amino-1-oxobutan-2-ylamino)-3-(quinolin-5-ylamino)pyrazine-2-carboxamide], the IC50 is 1 to 10 nM.

As for `NC(=O)c1ncc(N[C@@H]2CCCC[C@@H]2N)nc1Nc1cnn2ccccc12` [Example 413, 5-(((1R,2S)-2-aminocyclohexyl)amino)-3-(pyrazolo[1,5-a]pyridin-3-ylamino)pyrazine-2-carboxamide], the IC50 was < 1 nM.

As to `NC(=O)c1ncc(N[C@@H]2CCCC(F)(F)[C@@H]2N)nc1Nc1cccc(F)c1` [Example 372, 5-((1R,2R)-2-amino-3,3-difluorocyclohexylamino)-3-(3-fluorophenylamino)pyrazine-2-carboxamide], the IC50 was 10 to 100 nM.

`NC(=O)c1ncc(N[C@H](CC2CC2)C(N)=O)nc1Nc1cnc2cccnc2c1` [Example 406, (R)-3-(1,5-naphthyridin-3-ylamino)-5-(1-amino-3-cyclopropyl-1-oxopropan-2-ylamino)pyrazine-2-carboxamide]: the IC50 lay within 1 to 10 nM.

As to `CC[C@@H](Nc1cnc(C(N)=O)c(-n2cnc(-c3ccc(N)cc3)c2)n1)C(N)=O` [Example 97, (R)-5-(1-amino-1-oxobutan-2-ylamino)-3-(4-(4-aminophenyl)-1H-imidazol-1-yl)pyrazine-2-carboxamide], the IC50 was > 1000 nM.

For the compound `COc1ccc(Nc2nc(N[C@H](CC3CC3)C(N)=O)cnc2C(N)=O)cc1OC` [Example 171, (R)-5-(1-amino-3-cyclopropyl-1-oxopropan-2-ylamino)-3-(3,4-dimethoxyphenylamino)pyrazine-2-carboxamide], the IC50 was 1 to 10 nM.

In the case of `NC(=O)c1ncc(N[C@@H]2CCCC(F)(F)[C@@H]2N)nc1Nc1ccc2c(c1)CCOC2` [Example 453, 5-(((1R,2R)-2-amino-3,3-difluorocyclohexyl)amino)-3-(isochroman-6-ylamino)pyrazine-2-carboxamide], the IC50 lay within 1 to 10 nM.

Regarding `CC[C@@H](Nc1cnc(C(N)=O)c(Nc2ccc(C(=O)N3CC(C#N)C3)nc2)n1)C(N)=O` [Example 329, (R)-5-(1-amino-1-oxobutan-2-ylamino)-3-(6-(3-cyanoazetidine-1-carbonyl)pyridin-3-ylamino)pyrazine-2-carboxamide], the IC50 lay within 1 to 10 nM.

For `CC[C@@H](Nc1cnc(C(N)=O)c(Nc2snc(C)c2I)n1)C(N)=O` [Example 133, (R)-5-((1-amino-1-oxobutan-2-yl)amino)-3-((4-iodo-3-methylisothiazol-5-yl)amino)pyrazine-2-carboxamide], the IC50 was 10 to 100 nM.

For `COc1cncc(Nc2nc(N[C@@H]3CCCC(F)(F)[C@@H]3N)cnc2C(N)=O)c1` [Example 333, 5-((1R,2R)-2-amino-3,3-difluorocyclohexylamino)-3-(5-methoxypyridin-3-ylamino)pyrazine-2-carboxamide], the IC50 lay in the range of 100 to 1000 nM.

`NC(=O)c1ncc(NC2(C(N)=O)CCC2)nc1Nc1ccc2ncccc2c1` [Example 34, 5-(1-carbamoylcyclobutylamino)-3-(quinolin-6-ylamino)pyrazine-2-carboxamide]: the IC50 fell in the range of 1 to 10 nM.

Regarding `NC(=O)c1ncc(N[C@@H]2CCCC[C@@H]2N)nc1Nc1cncnc1` [Example 303, 5-((1R,2S)-2-aminocyclohexylamino)-3-(pyrimidin-5-ylamino)pyrazine-2-carboxamide], the IC50 lay within 10 to 100 nM.

As to `Cc1cc(Nc2nc(N[C@@H](C(N)=O)C(C)(C)C)cnc2C(N)=O)sn1` [Example 214, (R)-5-(1-amino-3,3-dimethyl-1-oxobutan-2-ylamino)-3-(3-methylisothiazol-5-ylamino)pyrazine-2-carboxamide], the IC50 lay within 10 to 100 nM.

With `C[C@@H](Nc1cnc(C(N)=O)c(Nc2cc(C3CC3)ns2)n1)C(N)=O` [Example 239, (R)-5-(1-amino-1-oxopropan-2-ylamino)-3-(3-cyclopropylisothiazol-5-ylamino)pyrazine-2-carboxamide], the IC50 is 1 to 10 nM.
